Measured values published in the Kinase Knowledgebase extract (Sharma et al. 2016).
Values after ≈ are worked out from the molar mass of the structure shown.

molecular target: EGFR (UniProt P00533)
Sequence (P00533 whole entry, looked up): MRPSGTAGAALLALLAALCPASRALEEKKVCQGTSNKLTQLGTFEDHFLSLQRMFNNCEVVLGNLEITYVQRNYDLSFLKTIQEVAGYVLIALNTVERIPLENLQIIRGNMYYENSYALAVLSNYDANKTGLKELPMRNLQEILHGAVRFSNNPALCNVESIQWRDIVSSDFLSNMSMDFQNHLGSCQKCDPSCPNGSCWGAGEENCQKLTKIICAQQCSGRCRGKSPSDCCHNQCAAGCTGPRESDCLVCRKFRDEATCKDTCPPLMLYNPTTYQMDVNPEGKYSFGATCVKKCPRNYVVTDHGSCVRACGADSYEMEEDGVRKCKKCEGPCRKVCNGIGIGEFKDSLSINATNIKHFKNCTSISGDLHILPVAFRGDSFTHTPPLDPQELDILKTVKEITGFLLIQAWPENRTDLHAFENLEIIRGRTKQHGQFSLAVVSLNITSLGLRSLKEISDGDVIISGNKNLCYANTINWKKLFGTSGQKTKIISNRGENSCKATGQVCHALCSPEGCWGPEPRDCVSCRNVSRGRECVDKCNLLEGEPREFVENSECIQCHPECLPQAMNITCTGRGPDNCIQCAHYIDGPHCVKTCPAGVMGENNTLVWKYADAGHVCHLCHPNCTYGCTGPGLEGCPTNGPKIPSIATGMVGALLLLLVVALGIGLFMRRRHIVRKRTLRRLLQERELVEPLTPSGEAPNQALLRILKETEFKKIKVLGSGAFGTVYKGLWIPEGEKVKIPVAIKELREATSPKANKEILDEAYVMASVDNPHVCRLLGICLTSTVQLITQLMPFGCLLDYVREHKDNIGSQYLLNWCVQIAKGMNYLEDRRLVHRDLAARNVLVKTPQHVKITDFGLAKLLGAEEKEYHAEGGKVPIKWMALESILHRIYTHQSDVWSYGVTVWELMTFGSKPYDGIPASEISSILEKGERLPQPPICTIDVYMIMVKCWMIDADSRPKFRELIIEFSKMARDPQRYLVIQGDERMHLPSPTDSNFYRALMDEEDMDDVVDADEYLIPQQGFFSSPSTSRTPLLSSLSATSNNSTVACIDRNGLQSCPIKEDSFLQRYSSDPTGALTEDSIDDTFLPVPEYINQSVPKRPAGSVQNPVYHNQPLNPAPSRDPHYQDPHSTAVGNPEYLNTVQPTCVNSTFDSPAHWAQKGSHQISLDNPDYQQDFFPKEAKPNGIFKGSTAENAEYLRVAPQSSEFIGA

**Q.** `COc1cc(Nc2ncnc(Cl)n2)cc(OC)c1OC` was tested. Which IC50 did it give?
**A.** > 4.5 µg/mL

**Q.** How did the IC50 turn out when `OCCCNc1ncnc(-c2ccccc2)n1` was run?
**A.** > 4.5 µg/mL

**Q.** How did the IC50 turn out when `COc1ccc(Nc2ncnc(NCc3c(C)cccc3Cl)n2)cc1OC` was run?
**A.** > 4.5 µg/mL

**Q.** `O=C(Nc1cccc(Nc2ncnc(-n3c(=O)[nH]c4ccccc43)n2)c1)O[C@@H]1CCOC1` was tested. Which IC50 did it give?
**A.** 2.4 to 3.5 µg/mL (≈ 5.54 to 8.08 µM)

**Q.** Which IC50 does the source give for `COC(=O)c1ccc(-c2cc(Nc3ncnc(NCc4ccccc4OC)n3)[nH]n2)cc1` here?
**A.** > 4.5 µg/mL

**Q.** `CC(=O)Nc1ccc(Nc2ncnc(-c3cccs3)n2)cc1` was tested. Which IC50 did it give?
**A.** > 4.5 µg/mL

**Q.** With `O=c1[nH]c2ccccc2n1-c1ncnc(Nc2ccccc2Cl)n1` as the compound, how does the IC50 read?
**A.** 0.4 to 2.4 µg/mL (≈ 1.18 to 7.08 µM)

**Q.** With `CCN(CC)CCN(C)c1ncnc(Nc2ccc(OC)c(OC)c2)n1` as the compound, how does the IC50 read?
**A.** > 4.5 µg/mL

**Q.** `Cc1ccc(Nc2ncnc(-n3cccc3)n2)cc1Cl` was tested. Which IC50 did it give?
**A.** > 4.5 µg/mL

**Q.** How did the IC50 turn out when `CCN(CC)c1ccc(Nc2ncnc(N3CCCc4cc(C)ccc43)n2)cc1` was run?
**A.** > 4.5 µg/mL

**Q.** How did the IC50 turn out when `O=c1[nH]c2ccccc2n1-c1ncnc(Nc2ccc(NS(=O)(=O)c3ccc([N+](=O)[O-])cc3)cc2)n1` was run?
**A.** 0.4 to 2.4 µg/mL (≈ 0.793 to 4.76 µM)

**Q.** How did the IC50 turn out when `COc1cc(Nc2ncnc(-n3c(NCc4ccc(Cl)cc4F)nc4ccccc43)n2)cc(OC)c1OC` was run?
**A.** > 4.5 µg/mL

**Q.** For `COc1cc(Nc2ncnc(-n3c(NC(CO)c4ccccc4)nc4ccccc43)n2)cc(OC)c1OC` (stereo not drawn), which IC50 is on record?
**A.** > 4.5 µg/mL

**Q.** How did the IC50 turn out when `COc1cc(Nc2ncnc(-c3ccc(N(C)C)nc3)n2)cc(OC)c1OC` was run?
**A.** > 4.5 µg/mL

**Q.** For `COc1cc(C)c(Nc2ncnc(Nc3cc(-c4ccc(Cl)cc4)n[nH]3)n2)cc1OC`, which IC50 is on record?
**A.** 3.5 to 4.5 µg/mL (≈ 7.99 to 10.3 µM)

**Q.** With `NC(=O)c1ccc(Nc2ncnc(-c3cccnc3NCc3cccs3)n2)cc1` as the compound, how does the IC50 read?
**A.** 0.4 to 2.4 µg/mL (≈ 0.991 to 5.95 µM)

**Q.** With `COc1ccc(Nc2ncnc(NCCCOC(C)C)n2)cc1OC` as the compound, how does the IC50 read?
**A.** > 4.5 µg/mL

**Q.** `COCCOc1ccc(Nc2ncnc(-n3c(N)nc4ccccc43)n2)cc1OC` was tested. Which IC50 did it give?
**A.** 3.5 to 4.5 µg/mL (≈ 8.59 to 11 µM)

**Q.** `COc1ccc(Nc2ncnc(Nc3ccc4c(c3)C(=O)N(C)C4=O)n2)cc1OC` was tested. Which IC50 did it give?
**A.** > 4.5 µg/mL

**Q.** For `CN(c1ccccc1)c1ncnc(-n2c(N)nc3ccccc32)n1`, which IC50 is on record?
**A.** 2.4 to 3.5 µg/mL (≈ 7.56 to 11 µM)

**Q.** With `COc1cc(Nc2ncnc(Nc3ccncc3)n2)cc(OC)c1OC` as the compound, how does the IC50 read?
**A.** > 4.5 µg/mL

**Q.** Which IC50 does the source give for `COc1cc(Nc2ncnc(-n3c(N)nc4cc(Cl)ccc43)n2)cc(OC)c1OC.COc1cc(Nc2ncnc(-n3c(N)nc4ccc(Cl)cc43)n2)cc(OC)c1OC` here?
**A.** > 4.5 µg/mL

**Q.** With `COc1cc(Nc2ncnc(Nc3cc(-c4ccc(C)cc4)n[nH]3)n2)cc(OC)c1OC` as the compound, how does the IC50 read?
**A.** 0.4 to 2.4 µg/mL (≈ 0.923 to 5.54 µM)

**Q.** `O=c1[nH]c2ccccc2n1-c1ncnc(Nc2cccc3ccccc23)n1` was tested. Which IC50 did it give?
**A.** > 4.5 µg/mL

**Q.** For `O=c1[nH]c2ccccc2n1-c1ncnc(Nc2cc(Cl)cc(Cl)c2)n1`, which IC50 is on record?
**A.** > 4.5 µg/mL

**Q.** Which IC50 does the source give for `COc1ccc(-c2cn[nH]c2Nc2ncnc(Nc3cc(OC)c(OC)c(OC)c3)n2)cc1OC` here?
**A.** 3.5 to 4.5 µg/mL (≈ 7.3 to 9.38 µM)

**Q.** `COc1cc(Nc2ncnc(NC(=O)Cc3ccccc3)n2)cc(OC)c1OC` was tested. Which IC50 did it give?
**A.** 0.4 to 2.4 µg/mL (≈ 1.01 to 6.07 µM)

**Q.** With `COc1cc(Nc2ncnc(NC3CC3c3ccccc3)n2)cc(OC)c1OCCN1CCOCC1` (stereo not drawn) as the compound, how does the IC50 read?
**A.** < 0.4 µg/mL

**Q.** `CCOC(=O)CNc1ncnc(N2CCCc3cc(C)ccc32)n1` was tested. Which IC50 did it give?
**A.** > 4.5 µg/mL

**Q.** Which IC50 does the source give for `COc1cc(Nc2ncnc(-n3c(N)nc4ccccc43)n2)cc(OC)c1` here?
**A.** > 4.5 µg/mL

**Q.** With `Nc1ncnc(Nc2ccc3c(c2)OCO3)n1` as the compound, how does the IC50 read?
**A.** 3.5 to 4.5 µg/mL (≈ 15.1 to 19.5 µM)

**Q.** For `CN(c1cccc(Cl)c1)c1ncnc(Nc2ccc(F)c(Cl)c2)n1`, which IC50 is on record?
**A.** < 0.4 µg/mL

**Q.** `COc1cc(Nc2ncnc(-n3ncc(-c4ccccc4)c3N)n2)cc(OC)c1OC` was tested. Which IC50 did it give?
**A.** 2.4 to 3.5 µg/mL (≈ 5.72 to 8.34 µM)

**Q.** Which IC50 does the source give for `Fc1ccc(CNc2ncnc(Nc3cc(-c4ccco4)n[nH]3)n2)cc1` here?
**A.** 3.5 to 4.5 µg/mL (≈ 9.96 to 12.8 µM)

**Q.** `O=c1[nH]c2ccccc2n1-c1ncnc(Nc2ccc(Cl)cc2Cl)n1` was tested. Which IC50 did it give?
**A.** > 4.5 µg/mL

**Q.** For `COc1ccc(Nc2ncnc(Nc3ccc(OC)c(OC)c3)n2)cc1OC`, which IC50 is on record?
**A.** > 4.5 µg/mL

**Q.** `COc1cc(CNc2ncnc(N(C)c3cccc(Cl)c3)n2)cc(OC)c1OC` was tested. Which IC50 did it give?
**A.** 2.4 to 3.5 µg/mL (≈ 5.77 to 8.42 µM)

**Q.** For `COc1cc(Nc2ncnc(Nc3nccs3)n2)cc(OC)c1OC`, which IC50 is on record?
**A.** > 4.5 µg/mL

**Q.** With `COc1cc(Nc2ncnc(-n3c(NCC(N)=O)nc4ccccc43)n2)cc(OC)c1OC` as the compound, how does the IC50 read?
**A.** > 4.5 µg/mL

**Q.** With `COc1cc(Nc2ncnc(-n3c(NCc4ccc(C)cc4)nc4ccccc43)n2)cc(OC)c1OC` as the compound, how does the IC50 read?
**A.** > 4.5 µg/mL

**Q.** Which IC50 does the source give for `Nc1ncnc(Nc2cc(Cl)ccc2O)n1` here?
**A.** > 4.5 µg/mL

**Q.** With `COc1cc(Nc2ncnc(N3CCc4ccc([N+](=O)[O-])cc43)n2)cc(OC)c1OC` as the compound, how does the IC50 read?
**A.** > 4.5 µg/mL

**Q.** Which IC50 does the source give for `CC(C)(C)OC(=O)Nc1ccc(Nc2ncnc(Nc3ccc(OCc4ccccc4)cc3)n2)cc1` here?
**A.** > 4.5 µg/mL
